Experimental data taken from article PMC11012124, “Synthesis of Novel Triazine-Based Chalcones and 8,9-dihydro-7H-pyrimido[4,5-b][1,4]diazepines as Potential Leads in the Search of Anticancer, Antibacterial and Antifungal Agents” (International Journal of Molecular Sciences, 2024).

Experiments:
Experiment in all cases: cells
UACC-257 = settings: Homo sapiens, UACC-257, 48 h; for CC50: read-out: LC50
CAKI-1 = settings: Homo sapiens, CAKI-1, 48 h; for CC50: read-out: LC50
SNB-19 = settings: Homo sapiens, SNB-19, 48 h; for CC50: read-out: LC50
SK-MEL-28 = settings: Homo sapiens, SK-MEL-28, 48 h; for CC50: read-out: LC50
SN12C = settings: Homo sapiens, 48 h; for CC50: read-out: LC50
OVCAR-3 = settings: Homo sapiens, OVCAR-3, 48 h; for CC50: read-out: LC50
UO-31 = settings: Homo sapiens, UO-31, 48 h; for CC50: read-out: LC50
NCI-H460 = settings: Homo sapiens, NCI-H460, 48 h; for CC50: read-out: LC50
HL-60(TB) = settings: Homo sapiens, HL-60, 48 h; for CC50: read-out: LC50
T-47D = settings: Homo sapiens, T47D, 48 h; for CC50: read-out: LC50
SK-MEL-5 = settings: Homo sapiens, SK-MEL-5, 48 h; for CC50: read-out: LC50
HS 578T = settings: Homo sapiens, 48 h; for CC50: read-out: LC50
KM12 = settings: Homo sapiens, KM12, 48 h; for CC50: read-out: LC50
HCC-2998 = settings: Homo sapiens, HCC 2998, 48 h; for CC50: read-out: LC50
A498 = settings: Homo sapiens, A498, 48 h; for CC50: read-out: LC50
SNB-75 = settings: Homo sapiens, SNB-75, 48 h; for CC50: read-out: LC50
A549/ATCC = settings: Homo sapiens, A549, 48 h; for CC50: read-out: LC50
M14 = settings: Homo sapiens, M14, 48 h; for CC50: read-out: LC50
SF-268 = settings: Homo sapiens, SF-268, 48 h; for CC50: read-out: LC50
PC-3 = settings: Homo sapiens, PC-3, 48 h; for CC50: read-out: LC50
HT29 = settings: Homo sapiens, HT-29, 48 h; for CC50: read-out: LC50
MOLT-4 = settings: Homo sapiens, MOLT-4, 48 h; for CC50: read-out: LC50
SF-539 = settings: Homo sapiens, SF-539, 48 h; for CC50: read-out: LC50, SF-539, 48 h
MDA-MB-231/ATCC = settings: Homo sapiens, MDA-MB-231, 48 h; for CC50: read-out: LC50
EKVX = settings: Homo sapiens, 48 h; for CC50: read-out: LC50
K-562 = settings: Homo sapiens, K562, 48 h; for GI50: K-562, 48 h; for CC50: read-out: LC50
CCRF-CEM = settings: Homo sapiens, 48 h; for CC50: read-out: LC50
HCT-116 = settings: Homo sapiens, HCT-116, 48 h; for CC50: read-out: LC50
LOX IMVI = settings: Homo sapiens, 48 h; for CC50: read-out: LC50, LOX IMVI, 48 h
MDA-MB-468 = settings: Homo sapiens, MDA-MB-468, 48 h; for CC50: read-out: LC50
HOP-92 = settings: Homo sapiens, HOP-92, 48 h; for CC50: read-out: LC50
U251 = settings: Homo sapiens, U-251, 48 h; for GI50: U251, 48 h; for CC50: read-out: LC50
UACC-62 = settings: Homo sapiens, UACC-62, 48 h; for CC50: read-out: LC50
COLO 205 = settings: Homo sapiens, COLO 205, 48 h; for CC50: read-out: LC50
SK-MEL-2 = settings: Homo sapiens, SK-MEL-2, 48 h; for CC50: read-out: LC50
786-0 = settings: Homo sapiens, 786-0, 48 h; for CC50: read-out: LC50
NCI-H522 = settings: Homo sapiens, NCI-H522, 48 h; for CC50: read-out: LC50

With `COc1cc(/C=C/C(=O)c2ccc(C)cc2)ccc1Oc1nc(Nc2ccc(F)cc2)nc(N(C)C)n1` [21b] the GI50 (UACC-257) was 8.76 µM, the CC50 (UACC-257) was greater than 100 µM and the GI50 (CAKI-1) was 6.43 µM. It also gave a CC50 (CAKI-1) greater than 100 µM, a GI50 (SNB-19) of 11.1 µM and a CC50 (SNB-19) of 67.3 µM. It also gave a GI50 (SK-MEL-28) of 12.3 µM, a CC50 (SK-MEL-28) of 79.6 µM and a GI50 (SN12C) of 3.89 µM. The CC50 (SN12C) was 73 µM, the GI50 (OVCAR-3) was 13 µM and the CC50 (OVCAR-3) was greater than 100 µM. It also gave a GI50 (UO-31) of 4.2 µM, a CC50 (UO-31) greater than 100 µM and a GI50 (NCI-H460) of 12.1 µM. The CC50 (NCI-H460) was greater than 100 µM, the GI50 (HL-60(TB)) was 19.1 µM and the CC50 (HL-60(TB)) was greater than 100 µM. The GI50 (T-47D) was 3.57 µM, the CC50 (T-47D) was greater than 100 µM and the GI50 (SK-MEL-5) was 5.14 µM. The CC50 (SK-MEL-5) was 78.5 µM, the GI50 (HS 578T) was 7.24 µM and the CC50 (HS 578T) was greater than 100 µM. For the same compound, the GI50 (KM12) was 19.3 µM, the CC50 (KM12) was greater than 100 µM and the GI50 (HCC-2998) was 20.5 µM. The CC50 (HCC-2998) was greater than 100 µM, the GI50 (A498) was 41.8 µM and the CC50 (A498) was greater than 100 µM. It also gave a GI50 (SNB-75) of 15.4 µM, a CC50 (SNB-75) greater than 100 µM and a GI50 (A549/ATCC) of 45.8 µM. The CC50 (A549/ATCC) was greater than 100 µM, the GI50 (M14) was 14.7 µM and the CC50 (M14) was greater than 100 µM. For the same compound, the GI50 (SF-268) was 13.9 µM, the CC50 (SF-268) was greater than 100 µM and the GI50 (PC-3) was 8.85 µM. For the same compound, the CC50 (PC-3) was greater than 100 µM, the GI50 (HT29) was 8.15 µM and the CC50 (HT29) was greater than 100 µM. For the same compound, the GI50 (MOLT-4) was 2.8 µM, the CC50 (MOLT-4) was greater than 100 µM and the GI50 (SF-539) was 7.64 µM. It also gave a CC50 (SF-539) of 44.9 µM, a GI50 (MDA-MB-231/ATCC) of 5.24 µM and a CC50 (MDA-MB-231/ATCC) of 50.8 µM. For the same compound, the GI50 (EKVX) was 6.71 µM, the CC50 (EKVX) was greater than 100 µM and the GI50 (K-562) was 4.2 µM. For the same compound, the CC50 (K-562) was greater than 100 µM, the GI50 (CCRF-CEM) was 3.92 µM and the CC50 (CCRF-CEM) was greater than 100 µM. It also gave a GI50 (HCT-116) of 2.28 µM, a CC50 (HCT-116) of 24.4 µM and a GI50 (LOX IMVI) of 1.84 µM. The CC50 (LOX IMVI) was 6.69 µM, the GI50 (MDA-MB-468) was 4.64 µM and the CC50 (MDA-MB-468) was greater than 100 µM. For the same compound, the GI50 (HOP-92) was 4.57 µM, the CC50 (HOP-92) was greater than 100 µM and the GI50 (U251) was 3.32 µM. The CC50 (U251) was greater than 100 µM, the GI50 (UACC-62) was 10.1 µM and the CC50 (UACC-62) was greater than 100 µM. For the same compound, the GI50 (COLO 205) was 41.7 µM, the CC50 (COLO 205) was greater than 100 µM and the GI50 (SK-MEL-2) was 8.83 µM. For the same compound, the CC50 (SK-MEL-2) was greater than 100 µM, the GI50 (786-0) was 13.3 µM and the CC50 (786-0) was greater than 100 µM. For the same compound, the GI50 (NCI-H522) was 9.76 µM and the CC50 (NCI-H522) was greater than 100 µM.
`COc1cc(/C=C/C(=O)c2cc(OC)c(OC)c(OC)c2)ccc1Oc1nc(Nc2ccc(F)cc2)nc(N(C)C)n1` [21d] showed a GI50 (UACC-257) of 2.83 µM, a CC50 (UACC-257) greater than 100 µM and a GI50 (CAKI-1) of 1.98 µM. It also gave a CC50 (CAKI-1) of 25.1 µM, a GI50 (SNB-19) of 1.86 µM and a CC50 (SNB-19) of 18.5 µM. The GI50 (SK-MEL-28) was 1.8 µM, the CC50 (SK-MEL-28) was 9.23 µM and the GI50 (SN12C) was 1.23 µM. It also gave a CC50 (SN12C) of 6.04 µM, a GI50 (OVCAR-3) of 2.57 µM and a CC50 (OVCAR-3) greater than 100 µM. The GI50 (UO-31) was 1.12 µM, the CC50 (UO-31) was 4.96 µM and the GI50 (NCI-H460) was 1.45 µM. For the same compound, the CC50 (NCI-H460) was 7.53 µM, the GI50 (HL-60(TB)) was 2.21 µM and the CC50 (HL-60(TB)) was greater than 100 µM. It also gave a GI50 (T-47D) of 1.87 µM, a CC50 (T-47D) greater than 100 µM and a GI50 (SK-MEL-5) of 2.16 µM. The CC50 (SK-MEL-5) was 12.2 µM, the GI50 (HS 578T) was 2.39 µM and the CC50 (HS 578T) was greater than 100 µM. The GI50 (KM12) was 3.63 µM, the CC50 (KM12) was greater than 100 µM and the GI50 (HCC-2998) was 2.03 µM. The CC50 (HCC-2998) was 8.52 µM, the GI50 (A498) was 3.99 µM and the CC50 (A498) was 38.9 µM. For the same compound, the GI50 (SNB-75) was 2.54 µM, the CC50 (SNB-75) was 81.8 µM and the GI50 (A549/ATCC) was 4.49 µM. The CC50 (A549/ATCC) was 54.7 µM, the GI50 (M14) was 2.83 µM and the CC50 (M14) was 32.8 µM. It also gave a GI50 (SF-268) of 3.43 µM, a CC50 (SF-268) greater than 100 µM and a GI50 (PC-3) of 2.77 µM. For the same compound, the CC50 (PC-3) was greater than 100 µM, the GI50 (HT29) was 1.54 µM and the CC50 (HT29) was 8.22 µM. For the same compound, the GI50 (MOLT-4) was 0.472 µM, the CC50 (MOLT-4) was greater than 100 µM and the GI50 (SF-539) was 1.64 µM. It also gave a CC50 (SF-539) of 5.81 µM, a GI50 (MDA-MB-231/ATCC) of 1.48 µM and a CC50 (MDA-MB-231/ATCC) of 8.63 µM. For the same compound, the GI50 (EKVX) was 2.15 µM, the CC50 (EKVX) was 31.1 µM and the GI50 (K-562) was 1.4 µM. It also gave a CC50 (K-562) greater than 100 µM, a GI50 (CCRF-CEM) of 2.19 µM and a CC50 (CCRF-CEM) greater than 100 µM. For the same compound, the GI50 (HCT-116) was 1.4 µM, the CC50 (HCT-116) was 7.24 µM and the GI50 (LOX IMVI) was 0.478 µM. The CC50 (LOX IMVI) was 4.11 µM, the GI50 (MDA-MB-468) was 1.35 µM and the CC50 (MDA-MB-468) was 9.11 µM. It also gave a GI50 (HOP-92) of 1.67 µM, a CC50 (HOP-92) of 50.9 µM and a GI50 (U251) of 0.503 µM. For the same compound, the CC50 (U251) was 9.59 µM, the GI50 (UACC-62) was 1.41 µM and the CC50 (UACC-62) was 6.38 µM. The GI50 (COLO 205) was 4.45 µM, the CC50 (COLO 205) was 47.5 µM and the GI50 (SK-MEL-2) was 1.69 µM. The CC50 (SK-MEL-2) was 8.47 µM, the GI50 (786-0) was 1.45 µM and the CC50 (786-0) was 7.19 µM. The GI50 (NCI-H522) was 1.47 µM and the CC50 (NCI-H522) was 7.11 µM.
